# Measurements from patent US9228209B2, “Method for producing triptolide” (priority 2009, dated 2016).
# Columns and labels:
# [1] = tested on: transcription factor NFκB; test: Test of NFκB inhibition (TNFα stimulation in HaCaT keratinocyte cells); format: cell-based, human
# Source text: Transcription factor NFκB controls the expression of a large number of genes involved in inflammatory response regulation. Certain proinflammatory stimuli, such as tumor necrosis factor-α (TNFα), lead to NFκB activation, i.e., to its nuclear translocation. Consequently, NFκB will induce the transcription of proinflammatory genes coding for cytokines, chemokines, adhesion molecules, growth factors and inducible enzymes such as cyclooxygenase-2 (COX-2) and nitric oxide synthase (iNOS). NFκB plays a key role in the initiation and amplification of the inflammatory response. Certain chronic inflammatory diseases of the skin, such as atopic dermatitis or psoriasis, are characterized by deregulation of the expression of inflammation mediators expressed by keratinocytes. The anti-inflammatory activity of pure triptolide (TRP) in relation to that of plant cell culture extracts (IBO.18.134) with equivalent amounts of TRP is evaluated.
# FIG. 6 represents the inhibition of various extracts on NFκB activation following TNFα stimulation in HaCaT keratinocyte cells. As a positive control, dexamethasone (2 μM), which inhibits NFκB activation by 36%, was used.
# RAW264.7 cells = test: NO2− production by RAW264.7 cells stimulated with LPS (Griess reagent); format: cell-based, murine; settings: identical TRP concentrations; 1 μg/ml LPS, 24 hours
# Description: To this end, the test selected was NO2^− production by RAW264.7 cells stimulated with lipopolysaccharides (LPS).
# Briefly, RAW264.7 cells (murine macrophages) were seeded at 1.4·10^5 cells/cm^2. After 24 hours, the cells were incubated for 1 hour with various concentrations of the products to be tested and then stimulated for 24 hours with 1 μg/ml of LPS. NO2 concentration was estimated in the culture supernatants using the Griess reagent.
# The results (FIG. 7) illustrate NO2^− production obtained under the various conditions specified above. The percent inhibition calculated in relation to the LPS control appears in each histogram. Lastly, IC50 was calculated from these values (in bold blue).
SMILES,"inhibition at 2 µM ([1]; Homo sapiens, HaCaT, read-out: inhibition of NFκB activation) [%]","inhibition of NFκB activation ([1]; from 8 nM to 83 nM, TNFα stimulation, HaCaT keratinocyte cells)","NFκB inhibition, PCC extract compared with pure triptolide ([1]; identical triptolide concentrations of 8 nM, 28 nM and 83 nM)",inhibition of nitrite production induced by LPS (RAW264.7 cells)
C[C@@H]1C[C@H]2[C@@H]3CCC4=CC(=O)C=C[C@]4(C)[C@@]3(F)[C@@H](O)C[C@]2(C)[C@@]1(O)C(=O)CO [dexamethasone],36,,,
"CC(C)[C@]12O[C@H]1[C@@H]1O[C@]13[C@]1(O[C@H]1C[C@H]1C4=C(CC[C@@]13C)C(=O)OC4)[C@@H]2O [triptolide, Triptolide]",,inhibits in a dose-dependent manner,equivalent,inhibit nitrite production
